Assays:
[1] = system: recombinant NL4-3 virus (Renilla luciferase) in MT-2 cells; experiment: HIV cell culture assay (antiviral activity, luciferase readout); type: cell-based; conditions: MT-2 cells infected for 4-5 days with recombinant NL4-3 Renilla luciferase virus; luciferase activity; read-out: EC50
Procedure, shortened: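 MT-2 cells were infected with recombinant NL4-3 virus carrying Renilla luciferase in place of part of nef. Cells were cultured 4–5 days with serially diluted compound, and luciferase was measured with a live-cell substrate. EC50 was calculated from the median effect equation.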

uninfected MT2 cells = experiment: Compound cytotoxicity, XTT-based colorimetric assay; type: cell-based; conditions: day 4, XTT
Procedure, shortened: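 Run under the antiviral-assay protocol but without virus. Viability was read on day 4 and CC50 values were derived from the readout.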

**Q.** Which results are given for `CC(C)(C)S(=O)(=O)c1cccc(-c2ccc3c(=O)n(-c4ccc(Cl)c5c(NS(=O)(=O)C6CC6)nn(CC(F)F)c45)c([C@H](Cc4cc(F)cc(F)c4)NC(=O)Cn4nc(C(F)F)c5c4C(F)(F)[C@@H]4C[C@H]54)nc3c2)c1` [Example 146, N-[(1S)-1-{3-[4-chloro-3-cyclopropanesulfonamido-1-(2,2-difluoroethyl)-1H-indazol-7-yl]-7-[3-(2-methylpropane-2-sulfonyl)phenyl]-4-oxo-3,4-dihydroquinazolin-2-yl}-2-(3,5-difluorophenyl)ethyl]-2-[(2S,4R)-9-(difluoromethyl)-5,5-difluoro-7,8-diazatricyclo[4.3.0.0^2,^4]nona-1(6),8-dien-7-yl]acetamide]?
**A.** EC50 [1]: 0.39 nM; CC50 (uninfected MT2 cells): > 500 nM

Source: patent US11541055B2, “Inhibitors of human immunodeficiency virus replication” (ViiV Healthcare UK (No. 5) LIMITED, priority 2018, dated 2023)
